# Test results as given in US5041542A, “Substituted pyrimido[5,4-d]pyrimidine nucleosides” (Nucleic Acid Research Institute, priority 1988, dated 1991).
# How the values were obtained:
# CEM-V cells = experiment: Growth inhibition of normal, uninfected cells (HIV test); format: cell-based; details: Homo sapiens, 168 h
# Method: (§1) Compound 8 was evaluated by the National Cancer Institute for in vitro activity against human immunodeficiency virus (HIV: cell line:CEM-V). In this test the compound was screened using human "host" cells with and without virus. The test is conducted for seven days (during which time infected, non-drug treated control cells are largely or totally destroyed by the virus), and then the number of remaining viable cells are determined. […] A therapeutic index (TI) can be calculated as the IC/EC ratio.
# [1] = Intracellular phosphorylation (SAX-HPLC); format: cell-based
# DNA and RNA viruses = details: cited from earlier work
# L1210 leukemia = details: mouse, in vivo; cited from earlier work
# [2] = system: human immunodeficiency virus; experiment: In vitro activity against HIV, viral cytopathic effect; format: cell-based
# Method: as §1
# WI-L2 adenosine kinase = biological target: T1, WI-L2 adenosine kinase (Homo sapiens, UniProt P55263); experiment: Adenosine kinase inhibition (filter binding assay); format: biochemical; details: decrease in rate of [14C]AMP formation from [14C]adenosine
# T1 construct: added to the cell-free WI-L2 lysate to give 5 μM final assay concentration; endogenous in cells; host or cells: WI-L2 B lymphoblast cells (cell-free lysate)
# [3] = Anomerization in aqueous solution (reverse-phase HPLC); format: physicochemical; details: buffered, 37° C., 9 h, no added protein
# Method: This would be expected where the rate of anomerization is slow compared to the rate of deamination.
# The compounds of the invention are capable of crossing the cell membrane, and activated to the 5'-phosphate, thus causing the inhibition of the de novo purine biosynthesis.
# HPLC Analysis: Sample components were separated with an LKB model 2150 gradient HPLC system at ambient temperature on an Altex Ultrashere-ODS reverse phase column (Beckman) developed with a linear gradient of buffer A (10 mM KPO4 ', pH 3.83) to 20% component B (60% aqueous CH3 CN) at a combined flow rate of 1.0 mL/min over 15 min. Ultraviolet (UV) absorbance was monitored with an LKB model 2140 diode array detector. Inhibition of de novo purine biosynthesis: WI-L2 or adenosine kinase-deficient cells were preincubated at 37° C. with drug for various time periods prior to labeling with [^14 C]formate. Enzyme Assays: Adenosine kinase inhibition studies were accomplished by the filter binding assay method. Inhibition studies were done at 37° C. with an assay mixture containing 4 mM ATP, 1.5 mM MgCl2, 5 or 10 μM [8-^14 C] adenosine (50 mCi/mmol) and 100 mM Tris-maleate, pH 5.5. To prevent the enzymatic breakdown of adenosine, erythro-9-(2-hydroxy-3-nonyl)adenine (EHNA) was added to the cell-free WI-L2 lysate to give 5 μM final assay concentration. The assay was started by the addition of protein. The amount of enzyme, time of assay and sampling volume were adjusted to give acceptable conversion of [8-^14 C] adenosine to [8-^14 C]AMP. Each DE-81 filter was spotted with a constant sampling volume and immersed in H 2 O (4 L) to terminate the reaction. Filters were washed three times with H2 O (4 L) and once with EtOH (100 mL). Dry filters were placed in scintillation vials and radioactivity was counted with 10 mL toluene-based scintillation cocktail.
# in vivo = details: mouse, ip
# [4] = system: Herpes 2, parainfluenza 3 and Vaccinia; format: cell-based; details: tested in parallel with ARPP (8)
# T1 sequence (P55263 whole entry): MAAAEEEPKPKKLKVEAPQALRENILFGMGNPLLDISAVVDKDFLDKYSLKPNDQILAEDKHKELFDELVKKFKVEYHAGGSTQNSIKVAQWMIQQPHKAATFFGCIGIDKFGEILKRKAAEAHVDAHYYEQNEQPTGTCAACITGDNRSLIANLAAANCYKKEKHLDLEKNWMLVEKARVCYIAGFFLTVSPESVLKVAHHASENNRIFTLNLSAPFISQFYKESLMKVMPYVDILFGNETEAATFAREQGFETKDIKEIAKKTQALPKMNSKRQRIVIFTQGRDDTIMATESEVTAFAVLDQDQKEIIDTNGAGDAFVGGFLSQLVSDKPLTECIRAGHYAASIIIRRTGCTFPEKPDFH
Compound,"IC50 (CEM-V cells; read-out: IC50 (50% growth inhibition), seven days)",IC90 (CEM-V cells; seven days),intracellular phosphate formation [1],antiviral activity in cell culture (cited) (DNA and RNA viruses),growth of L1210 leukemia in mice (cited) (L1210 leukemia),"EC50 ([2]; Human immunodeficiency virus 1, 168 h, read-out: EC50 (50% reduction of viral cytopathic effect))","EC90 ([2]; Human immunodeficiency virus 1, 168 h, HIV, CEM-V cells, seven days, read-out: EC90 (90% reduction of viral cytopathic effect))","therapeutic index at 50% (IC/EC ratio) ([2]; IC50/EC50, HIV, CEM-V, 10080 min)","therapeutic index at 90% (IC/EC ratio) ([2]; IC90/EC90, HIV, CEM-V, 10080 min)",direct inhibition of adenosine kinase (WI-L2 adenosine kinase),21 (anomeric mixture) formed from compound 14 [3],α-anomer 17 formed from compound 14 [3],MTD (in vivo),Antiviral activity in cell culture [4]
"Nc1ncnc2c(N[C@@H]3O[C@H](CO)[C@@H](O)[C@H]3O)ncnc12 [Compound 8, 4-Amino-8-(β-D-ribofuranosylamino)pyrimido[5,4-d]pyrimidine, reference compound]",1.95 µM,6.6 µM,formation of intracellular ARPP 5'-monophosphate but no higher phosphate analogues,antiviral activity for DNA and RNA viruses in cell culture by inhibiting viral protein synthesis,inhibits the growth of L1210 leukemia in mice,0.0951 µM,0.768 µM,2.05×10^1,8.60×10^0,–,–,–,–,–
"COc1ncnc2c(N[C@@H]3O[C@H](CO)[C@@H](O)[C@H]3O)ncnc12 [Compound 14, 4-Methoxy-8-(β-D-ribofuranosylamino)pyrimido[5,4-d]pyrimidine]",–,–,–,–,–,–,–,–,–,Direct inhibition,0.42%,1.35%,62 mg/kg,antiviral activity
